Measurements as given in ChEMBL document CHEMBL4689842, “EUbOPEN Chemogenomics Library wave 1” (2021).

How the values were obtained:
Fibroblast = experiment: Incucyte cell viability with human fibroblast; type: toxicity, cell-based; settings: 10 µM, compound concentration 10 uM
HEK-293T = experiment: Incucyte cell viability with HEK293T; type: toxicity, cell-based; settings: human, 10 µM, compound concentration 10 uM
[1] = 0 h, replicate number 2, timepoint 0 hours
[2] = 6 h, replicate number 1, timepoint 6 hours
[3] = 12 h, replicate number 1, timepoint 12 hours
[4] = 18 h, replicate number 1, timepoint 18 hours
[5] = 24 h, replicate number 1, timepoint 24 hours
[6] = 0 h, replicate number 1, timepoint 0 hours
[7] = 6 h, replicate number 2, timepoint 6 hours
[8] = 12 h, replicate number 2, timepoint 12 hours
[9] = 18 h, replicate number 2, timepoint 18 hours
[10] = 24 h, replicate number 2, timepoint 24 hours
Further: filed as whole numbers so only -1 and 0 and 1 occur.

Row | SMILES | Growth Rate (Fibroblast; [1]) | Growth Rate (Fibroblast; [2]) | Growth Rate (Fibroblast; [3]) | Growth Rate (Fibroblast; [4]) | Growth Rate (Fibroblast; [5]) | Growth Rate (HEK-293T; [6]) | Growth Rate (HEK-293T; [2]) | Growth Rate (HEK-293T; [3]) | Growth Rate (HEK-293T; [4]) | Growth Rate (HEK-293T; [5]) | Growth Rate (Fibroblast; [6]) | Growth Rate (Fibroblast; [7]) | Growth Rate (HEK-293T; [1]) | Growth Rate (HEK-293T; [7]) | Growth Rate (HEK-293T; [8]) | Growth Rate (HEK-293T; [9]) | Growth Rate (Fibroblast; [8]) | Growth Rate (Fibroblast; [10]) | Growth Rate (Fibroblast; [9])
1 | COc1ccc(Oc2cc(NCCC(F)(F)F)c3ncc(-c4ccc(C(=O)NC5CC5)c(C)c4)n3n2)c(F)c1F [BAY-1217389] | 1 | 0 | 0 | 0 | 0 | 0 | 0 | 0 | 0 | 0 | – | – | – | – | – | – | – | – | –
2 | Cn1cc(-c2[nH]c3cc(NC(=O)[C@H](N)C4CCCCC4)cc4c3c2C=NNC4=O)cn1 | – | – | – | 1 | 1 | – | 0 | 0 | 0 | 0 | 0 | – | – | – | – | – | – | – | –
3 | C[C@@]1(C(=O)Nc2ccc(F)nc2)CCCN1c1nc(Nc2cc(C3CC3)n[nH]2)c2cccn2n1 [BMS-754807] | – | 0 | 0 | 0 | 0 | – | 0 | 0 | 0 | 0 | – | – | – | – | – | – | – | – | –
4 | Cc1nc(-c2cn3c(n2)-c2ccc(-c4cnn(C(C)(C)C(N)=O)c4)cc2OCC3)n(C(C)C)n1 [TASELISIB] | 1 | 0 | 0 | 0 | 0 | – | 0 | 0 | 0 | 0 | 0 | – | – | – | – | – | – | – | –
5 | Cc1sc2c(c1C)C(c1ccc(Cl)cc1)=N[C@@H](CC(=O)OC(C)(C)C)c1nnc(C)n1-2 | 0 | 0 | 0 | 0 | 0 | 0 | – | – | 1 | 0 | – | 1 | 1 | 0 | 0 | 0 | – | – | –
6 | CN1CCC[C@@H]1CCO[C@](C)(c1ccccc1)c1ccc(Cl)cc1.O=C(O)/C=C/C(=O)O [CLEMASTINE FUMARATE] | – | 1 | 0 | 0 | 0 | – | 0 | 0 | 0 | 0 | 0 | 0 | 1 | – | – | – | – | – | –
7 | OC1(c2ccc(Cl)cc2)CCN(Cc2c[nH]c3ccccc23)CC1 | – | 0 | 0 | 0 | 0 | 1 | 0 | 0 | 0 | 0 | 0 | – | – | – | – | – | – | – | –
8 | CN1CCN(c2ccc(OC(F)(F)F)c(Nc3ncc4c(n3)-c3c(c(C(N)=O)nn3CCO)CC4)c2)CC1 [ONVANSERTIB] | – | 0 | 0 | 0 | 0 | 1 | 0 | 0 | 0 | 0 | – | – | 0 | – | – | – | – | – | –
9 | Cc1nc(-c2ccc(-c3ccc(C(=O)N4CCc5cc6c(cc54)C4(CCN(C)CC4)CO6)cc3)c(C)c2)no1 [SB-224289] | – | – | 0 | 0 | 0 | – | 0 | 0 | 0 | 0 | 0 | 0 | 0 | – | – | – | – | – | –
10 | CC(C)(O)CNc1ncc(-c2ccnc(Nc3ccnc(Cl)c3)n2)c(CC2CC2)n1 | 1 | 0 | 0 | 0 | 0 | – | 0 | 0 | 0 | 0 | – | 1 | 1 | – | – | – | – | – | –
11 | CN1C(=O)c2sccc2N(C)c2nc(Nc3ccc(S(N)(=O)=O)cc3)ncc21 | – | 1 | 0 | 0 | 0 | – | 0 | 0 | 0 | 0 | 0 | 0 | – | – | – | – | 1 | 1 | –
12 | NC(=O)Nc1cc(-c2cccc(F)c2)sc1C(=O)N[C@H]1CCCNC1 [AZD-7762] | 0 | 1 | 0 | 0 | 0 | 0 | 0 | 0 | 0 | 0 | – | – | 1 | – | – | – | – | – | 1
13 | CN(C)C(=O)N[C@H]1CC[C@H](CCN2CCN(c3cccc(Cl)c3Cl)CC2)CC1.Cl [CARIPRAZINE HYDROCHLORIDE] | – | 0 | 0 | 1 | 1 | – | 0 | 0 | 0 | 0 | 0 | – | 1 | – | – | – | – | 0 | 0
14 | C=CC(=O)Nc1ccc2ncnc(Nc3ccc(OCc4cccc(F)c4)c(Cl)c3)c2c1.Cc1ccc(S(=O)(=O)O)cc1 | – | 0 | 0 | 0 | 0 | 0 | – | – | 0 | 0 | 0 | – | 1 | 0 | 0 | – | – | – | –
15 | CN1CCCC(n2nc(Cc3ccc(Cl)cc3)c3ccccc3c2=O)CC1.Cl (stereo not given) [AZELASTINE HYDROCHLORIDE] | – | – | 1 | 1 | 0 | – | 0 | 0 | 0 | 0 | 0 | 0 | 1 | – | – | – | 0 | – | 0
16 | O=C1NCN(c2ccccc2)C12CCN(CCCOc1ccc(F)cc1)CC2 [SPIRAMIDE] | – | 0 | 0 | 0 | 0 | 0 | 0 | 0 | 0 | 0 | 1 | – | – | – | – | – | – | – | –
17 | CC[C@H](C)C(=O)O[C@H]1C[C@@H](C)C=C2C=C[C@H](C)[C@H](CC[C@@H]3C[C@@H](O)CC(=O)O3)[C@H]21 [LOVASTATIN] | – | 1 | 1 | 1 | 1 | 0 | 1 | 0 | 0 | 0 | 0 | – | – | – | 1 | – | – | – | –
